# According to ChEMBL document CHEMBL1154109, “In vitro biological activity and structural analysis of 2,4-diamino-5-(2'-arylpropargyl)pyrimidine inhibitors of Candida albicans” (Bioorg Med Chem, 2009):
# Calls of active or inactive are those of the source. The calls are words filed in the database; no cut-off is given here.
# Experiments:
# [1] = tested on: Candida albicans
# [2] = biological target: T1, Dihydrofolate reductase (Candida albicans, UniProt P22906)
# T1 sequence (P22906 whole entry): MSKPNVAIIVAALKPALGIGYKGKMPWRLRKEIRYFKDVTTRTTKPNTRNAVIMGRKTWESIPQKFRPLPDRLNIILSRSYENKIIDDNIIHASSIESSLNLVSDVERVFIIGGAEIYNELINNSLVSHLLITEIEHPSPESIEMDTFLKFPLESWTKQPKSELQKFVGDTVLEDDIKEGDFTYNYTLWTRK
# Description: Inhibition of Candida albicans DHFR expressed in Escherichia coli BL21 (DE3) assessed as rate of NADPH consumption using dihydrofolate as substrate
# [3] = Cytotoxicity against human MCF10A cells after 4 hrs by alamar blue assay; conditions: MCF-10A
# [4] = tested on: Candida albicans; assay: Antifungal activity against Candida albicans by alamar blue assay
# [5] = biological target: T2, Dihydrofolate reductase (Homo sapiens, UniProt P00374)
# T2 sequence (P00374 whole entry): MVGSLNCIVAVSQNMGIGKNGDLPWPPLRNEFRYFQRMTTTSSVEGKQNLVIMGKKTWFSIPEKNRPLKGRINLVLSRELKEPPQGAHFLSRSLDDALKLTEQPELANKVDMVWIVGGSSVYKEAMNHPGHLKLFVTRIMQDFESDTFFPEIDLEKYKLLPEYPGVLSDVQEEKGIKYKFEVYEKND
# Description: Inhibition of human DHFR assessed as rate of NADPH consumption using dihydrofolate as substrate
SMILES,MIC [1],IC50 [2],other results
COc1cc(CC#Cc2cnc(N)nc2N)cc(OC)c1OC,inactive,0.82 µM,–
COc1cc(CC#Cc2c(C)nc(N)nc2N)cc(OC)c1OC,inactive,0.18 µM,–
COc1cc(-c2ccccc2)cc([C@@H](C)C#Cc2c(C)nc(N)nc2N)c1,–,0.033 µM,–
COc1cc(-c2ccccc2)cc([C@H](C)C#Cc2c(C)nc(N)nc2N)c1,–,0.037 µM,–
CCc1nc(N)nc(N)c1C#CCc1cc(OC)c(OC)c(OC)c1,–,0.018 µM,–
COc1ccc(OC)c(CC#Cc2c(C)nc(N)nc2N)c1,–,0.41 µM,–
CCc1nc(N)nc(N)c1C#CCc1cc(OC)ccc1OC,–,0.1 µM,IC50 [3]: 63 µM
CCCc1nc(N)nc(N)c1C#CCc1cc(OC)ccc1OC,–,0.045 µM,–
COc1ccc(OC)c(CC#Cc2cnc(N)nc2N)c1,–,1.4 µM,–
COc1cc(CC#Cc2c(C)nc(N)nc2N)cc(-c2c(C)cccc2C)c1,–,0.055 µM,–
COc1cc(C(C)C#Cc2cnc(N)nc2N)cc(OC)c1OC (racemic),inactive,0.18 µM,–
COc1cc(C(C#Cc2cnc(N)nc2N)OC)cc(OC)c1OC (racemic),inactive,2.5 µM,–
COc1cc(C(C#Cc2c(C)nc(N)nc2N)OC)cc(OC)c1OC (racemic),inactive,0.32 µM,–
COc1cc(C(O)C#Cc2c(C)nc(N)nc2N)cc(OC)c1OC (racemic),inactive,0.98 µM,IC50 [3]: 1000 µM
COc1cc(C(C)C#Cc2c(C)nc(N)nc2N)cc(OC)c1OC (racemic),–,0.11 µM,–
COc1cc(C(O)C#Cc2cnc(N)nc2N)cc(OC)c1OC (racemic),inactive,11.9 µM,–
COc1cc(-c2c(C)cccc2C)cc(C(C)C#Cc2c(C)nc(N)nc2N)c1 (racemic),–,0.045 µM,–

SMILES,MIC [1],IC50 [2],other results
COc1cc(-c2c(C(C)C)cccc2C(C)C)cc(C(C)C#Cc2c(C)nc(N)nc2N)c1 (racemic),inactive,0.038 µM,–
COc1cc(C(C)C#Cc2c(C)nc(N)nc2N)ccc1-c1ccccc1 (racemic),–,0.055 µM,IC50 [3]: 80 µM
COc1cc(C(C)C#Cc2c(C)nc(N)nc2N)ccc1-c1c(C)cccc1C (racemic),inactive,0.032 µM,–
COc1cc(C(C)C#Cc2c(C)nc(N)nc2N)ccc1-c1c(C(C)C)cccc1C(C)C (racemic),inactive,0.041 µM,–
COc1cc(-c2ccccc2C)cc(C(C)C#Cc2c(C)nc(N)nc2N)c1 (racemic),–,0.045 µM,–
COc1cc(-c2ccccc2)cc(C(C)C#Cc2c(C)nc(N)nc2N)c1 (racemic),–,–,MIC [4]: 90 µg/mL
COc1ccc(-c2cc(OC)cc(C(C)C#Cc3c(C)nc(N)nc3N)c2)cc1 (racemic),–,0.03 µM,–
COc1ccc(OC)c(C(O)C#Cc2c(C)nc(N)nc2N)c1 (racemic),–,0.73 µM,–
COc1ccc(OC)c(C(C)C#Cc2c(C)nc(N)nc2N)c1 (racemic),–,0.048 µM,IC50 [5]: 0.4 µM
CCC(C#Cc1c(C)nc(N)nc1N)c1cc(OC)c(OC)c(OC)c1 (racemic),–,0.045 µM,IC50 [5]: 0.2 µM
COc1cc(-c2ccccc2)cc(C(O)C#Cc2c(C)nc(N)nc2N)c1 (racemic),inactive,0.091 µM,–
COc1cc(-c2cc(C)cc(C)c2)cc(C(C)C#Cc2c(C)nc(N)nc2N)c1 (racemic),–,0.017 µM,–
CCc1nc(N)nc(N)c1C#CC(C)c1cc(OC)c(OC)c(OC)c1 (racemic),–,0.02 µM,–
COc1cc(-c2ccc(C(C)(C)C)cc2)cc(C(C)C#Cc2c(C)nc(N)nc2N)c1 (racemic),–,0.034 µM,IC50 [3]: 50 µM
COc1cc(C(C#Cc2c(C)nc(N)nc2N)C(C)C)cc(OC)c1OC (racemic),–,0.033 µM,–
COc1ccc(OC)c(C(C#Cc2c(C)nc(N)nc2N)OC)c1 (racemic),inactive,0.55 µM,IC50 [5]: 0.06 µM
COc1cc(-c2ccc(C)cc2)cc(C(C)C#Cc2c(C)nc(N)nc2N)c1 (racemic),–,0.022 µM,–
